Measurements published in US20240166652A1, “MODULATORS OF THE INTEGRATED STRESS PATHWAY” (Calico Life Sciences LLC, priority 2017, published 2024).

Key:
[1] = target: T1, eIF2B mutant B3 H341Q (HEK293T ATF4-Fluc cells) (Homo sapiens, UniProt P49770+Q9NR50+Q9UI10, H341Q); experiment: ATF4-Luc assay, VWMD eIF2B mutant B3 H341Q; type: cell-based; conditions: 1 μg/mL tunicamycin, 7 hours
T1 construct: endogenous in cells
Experimental: (§1) In order to test exemplary compounds of the invention in a cellular context, a stable VWMD cell line was first constructed. The ATF4 reporter was prepared by fusing the human full-length ATF4 5′-UTR (NCBI Accession No. BC022088.2) in front of the firefly luciferase (FLuc) coding sequence lacking the initiator methionine as described in Sidrauski et al (eLife 2013). The construct was used to produce recombinant retroviruses using standard methods and the resulting viral supernatant was used to transduce HEK293T cells, which were then subsequently selected with puromycin to generate a stable cell line.
(§2) HEK293T cells carrying the ATF4 luciferase reporter were plated on polylysine coated 384-well plates (Greiner Bio-one) at 30,000 cells per well. Cells were treated the next day with 1 μg/mL tunicamycin and 200 nM of a compound of Formula (I) for 7 hours. Luminescence was measured using One Glo (Promega) as specified by the manufacturer. Cells were maintained in DMEM with L-glutamine supplemented with 10% heat-inactivated FBS (Gibco) and Antibiotic-Antimycotic solution (Gibco).
(§3) VWMD mutations were introduced into the genome of the HEK293T ATF4-Fluc stable cell lines by using Gene Art CRISPR nuclease vector with OFP Reporter kit (ThermoFisher; see Table 3 below). Guide RNAs were designed using the CRISPR Design Tool (http://crispr.mit.edu) and ligated into the CRISPR OFP Nuclease Vector. To obtain homology directed repair (HDR) incorporating VWMD point mutations in the genome, 150 bp ssDNA ultramer oligos were synthesized by Integrated DNA Technologies containing specific mutations of interest. In addition to the VWMD mutations, the ssDNA HDR templates contained a silent mutation to the PAM site of the CRISPR gRNA sequence (to avoid further Cas9 cutting) and 75 bp of homology on each side of the mutation.
(§4) HEK293T ATF4-Fluc cells were transfected with 500 ng of the CRISPR OFP Nuclease Vector and 1 uL of 10 μM ssDNA HDR template using lipofectamine 3000 (ThermoFisher) or SF Cell Line 4D-nucleofector X Kit (Lonza) according to the manufacturer's instructions. After 2-3 days of recovery, single cells were sorted for positive OFP expression on a FACS Aria II (BD Biosciences) into wells of a 96 well plate and allowed to recover for 1-2 weeks.
(§5) The resulting clones were surveyed for CRISPR editing and HDR by harvesting the genomic DNA with the PureLink Genomic DNA kit (ThermoFisher), amplifying a […] locus near the editing site, and sequencing the amplicon. […] Typical clones obtained were hemizygous for the VWMD point mutation, with one or two alleles harboring the desired mutation, and the remaining alleles knocked out (edited to produce a premature stop codon). […]

[2] = test system: ATF4 luciferase reporter in HEK293T cells; experiment: ATF4-Luc assay (ATF4 luciferase reporter, tunicamycin-treated HEK293T cells); type: cell-based, human; conditions: Homo sapiens, HEK-293T; HEK293T cells carrying the ATF4 luciferase reporter, 1 μg/mL tunicamycin, 7 hours
[3] = target: T2, eIF2B mutant B5 R113H (HEK293T ATF4-Fluc cells) (Homo sapiens, UniProt P49770+Q13144+Q9UI10, R113H); experiment: ATF4-Luc assay, VWMD eIF2B mutant B5 R113H; type: cell-based; conditions: 1 μg/mL tunicamycin, 7 hours
T2 construct: endogenous in cells
T2 sequence (Q13144 whole entry R113H): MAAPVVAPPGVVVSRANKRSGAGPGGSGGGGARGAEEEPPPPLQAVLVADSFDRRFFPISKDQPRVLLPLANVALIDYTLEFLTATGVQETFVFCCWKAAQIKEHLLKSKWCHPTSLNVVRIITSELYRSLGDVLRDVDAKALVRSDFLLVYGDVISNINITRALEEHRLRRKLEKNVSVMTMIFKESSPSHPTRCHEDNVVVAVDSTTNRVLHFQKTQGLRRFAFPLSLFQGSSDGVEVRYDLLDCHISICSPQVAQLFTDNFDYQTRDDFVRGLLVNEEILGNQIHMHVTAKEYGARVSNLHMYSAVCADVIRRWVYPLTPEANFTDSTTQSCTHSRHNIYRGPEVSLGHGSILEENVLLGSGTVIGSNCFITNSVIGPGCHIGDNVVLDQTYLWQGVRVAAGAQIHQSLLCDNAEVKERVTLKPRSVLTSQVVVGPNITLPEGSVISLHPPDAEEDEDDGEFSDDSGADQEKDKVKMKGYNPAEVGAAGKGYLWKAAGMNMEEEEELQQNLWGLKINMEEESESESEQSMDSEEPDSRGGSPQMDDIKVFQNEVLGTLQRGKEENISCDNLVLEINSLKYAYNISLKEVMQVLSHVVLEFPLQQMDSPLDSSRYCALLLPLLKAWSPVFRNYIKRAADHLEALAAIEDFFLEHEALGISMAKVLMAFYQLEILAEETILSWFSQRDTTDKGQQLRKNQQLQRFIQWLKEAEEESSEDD
T2 sequence (Q14232 whole entry partner): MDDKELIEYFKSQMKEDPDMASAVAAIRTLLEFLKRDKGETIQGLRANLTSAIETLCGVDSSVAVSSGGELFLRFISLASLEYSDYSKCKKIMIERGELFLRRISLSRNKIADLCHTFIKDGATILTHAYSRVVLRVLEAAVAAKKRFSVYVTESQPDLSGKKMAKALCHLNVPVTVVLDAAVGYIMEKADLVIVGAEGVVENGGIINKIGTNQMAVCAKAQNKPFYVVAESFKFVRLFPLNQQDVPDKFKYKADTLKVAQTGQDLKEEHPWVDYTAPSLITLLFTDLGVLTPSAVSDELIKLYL
T2 sequence (P49770 whole entry): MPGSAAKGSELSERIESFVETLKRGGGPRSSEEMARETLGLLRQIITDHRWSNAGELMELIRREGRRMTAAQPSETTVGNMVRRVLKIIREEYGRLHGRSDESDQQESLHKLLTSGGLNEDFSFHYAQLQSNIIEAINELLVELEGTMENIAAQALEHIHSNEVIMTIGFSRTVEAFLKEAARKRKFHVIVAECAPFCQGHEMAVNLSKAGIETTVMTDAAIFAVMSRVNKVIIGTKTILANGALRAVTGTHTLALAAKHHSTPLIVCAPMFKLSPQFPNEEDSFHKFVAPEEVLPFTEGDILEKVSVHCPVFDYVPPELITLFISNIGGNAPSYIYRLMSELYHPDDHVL
T2 sequence (Q9NR50 whole entry partner): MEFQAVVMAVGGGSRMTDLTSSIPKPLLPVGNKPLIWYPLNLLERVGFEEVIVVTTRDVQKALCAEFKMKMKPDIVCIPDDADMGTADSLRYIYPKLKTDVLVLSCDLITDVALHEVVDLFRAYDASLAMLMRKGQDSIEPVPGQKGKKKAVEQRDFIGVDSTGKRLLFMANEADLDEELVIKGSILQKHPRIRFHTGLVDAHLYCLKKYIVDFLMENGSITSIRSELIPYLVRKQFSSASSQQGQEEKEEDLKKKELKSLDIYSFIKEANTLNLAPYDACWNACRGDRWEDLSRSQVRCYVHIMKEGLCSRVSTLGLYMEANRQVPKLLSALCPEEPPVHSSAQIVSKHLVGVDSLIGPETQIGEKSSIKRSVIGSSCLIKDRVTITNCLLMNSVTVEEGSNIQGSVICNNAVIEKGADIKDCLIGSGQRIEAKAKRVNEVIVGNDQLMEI
T2 sequence (Q9UI10 whole entry): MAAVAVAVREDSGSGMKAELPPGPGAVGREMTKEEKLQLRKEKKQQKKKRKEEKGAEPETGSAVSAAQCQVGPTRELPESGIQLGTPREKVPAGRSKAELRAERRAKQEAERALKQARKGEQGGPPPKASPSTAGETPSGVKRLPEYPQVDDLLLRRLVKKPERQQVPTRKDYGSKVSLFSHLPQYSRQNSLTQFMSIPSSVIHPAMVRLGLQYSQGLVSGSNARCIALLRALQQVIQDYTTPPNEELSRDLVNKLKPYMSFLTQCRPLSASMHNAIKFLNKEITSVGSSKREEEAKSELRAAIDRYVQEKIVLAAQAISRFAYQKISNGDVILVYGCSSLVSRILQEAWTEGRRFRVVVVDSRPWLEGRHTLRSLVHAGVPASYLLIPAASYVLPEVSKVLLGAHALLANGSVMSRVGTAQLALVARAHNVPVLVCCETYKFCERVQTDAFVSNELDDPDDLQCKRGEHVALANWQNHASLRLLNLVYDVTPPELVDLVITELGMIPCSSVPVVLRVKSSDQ
Experimental: as §1, §2, §3, §4, §5

[4] = target: T3, eIF2B mutant B4 R357W (HEK293T ATF4-Fluc cells) (Homo sapiens, UniProt P49770+Q9UI10, R357W); experiment: ATF4-Luc assay, VWMD eIF2B mutant B4 R357W; type: cell-based; conditions: 1 μg/mL tunicamycin, 7 hours
T3 construct: endogenous in cells
T3 sequence (Q9UI10 whole entry R357W): as the sequence (Q9UI10 whole entry) above, with R357W counted along it
T3 sequence (Q14232 whole entry partner): as the sequence (Q14232 whole entry partner) above
T3 sequence (P49770 whole entry): as the sequence (P49770 whole entry) above
T3 sequence (Q9NR50 whole entry partner): as the sequence (Q9NR50 whole entry partner) above
T3 sequence (Q13144 whole entry partner): as the sequence (Q13144 whole entry R113H) above, with H113R counted along it
Experimental: as §1, §2, §3, §4, §5

[5] = target: T4, eIF2B mutant B3 I346T (HEK293T ATF4-Fluc cells) (Homo sapiens, UniProt P49770+Q9NR50+Q9UI10, I346T); experiment: ATF4-Luc assay, VWMD eIF2B mutant B3 I346T; type: cell-based; conditions: 1 μg/mL tunicamycin, 7 hours
T4 construct: endogenous in cells
T4 sequence (Q9NR50 whole entry I346T): as the sequence (Q9NR50 whole entry partner) above, with I346T counted along it
T4 sequence (Q14232 whole entry partner): as the sequence (Q14232 whole entry partner) above
T4 sequence (P49770 whole entry): as the sequence (P49770 whole entry) above
T4 sequence (Q9UI10 whole entry): as the sequence (Q9UI10 whole entry) above
T4 sequence (Q13144 whole entry partner): as the sequence (Q13144 whole entry R113H) above, with H113R counted along it
Experimental: as §1, §2, §3, §4, §5

[6] = target: T5, eIF2B mutant B4 R483W (HEK293T ATF4-Fluc cells) (Homo sapiens, UniProt P49770+Q9UI10, R483W); experiment: ATF4-Luc assay, VWMD eIF2B mutant B4 R483W; type: cell-based; conditions: 1 μg/mL tunicamycin, 7 hours
T5 construct: endogenous in cells
T5 sequence (Q9UI10 whole entry R483W): as the sequence (Q9UI10 whole entry) above, with R483W counted along it
T5 sequence (Q14232 whole entry partner): as the sequence (Q14232 whole entry partner) above
T5 sequence (P49770 whole entry): as the sequence (P49770 whole entry) above
T5 sequence (Q9NR50 whole entry partner): as the sequence (Q9NR50 whole entry partner) above
T5 sequence (Q13144 whole entry partner): as the sequence (Q13144 whole entry R113H) above, with H113R counted along it
Experimental: as §1, §2, §3, §4, §5

[7] = target: T6, eIF2B mutant B1 V183F (HEK293T ATF4-Fluc cells) (Homo sapiens, UniProt P49770+Q14232+Q9UI10, V183F); experiment: ATF4-Luc assay, VWMD eIF2B mutant B1 V183F; type: cell-based; conditions: 1 μg/mL tunicamycin, 7 hours
T6 construct: endogenous in cells
T6 sequence (Q14232 whole entry V183F): as the sequence (Q14232 whole entry partner) above, with V183F counted along it
T6 sequence (P49770 whole entry): as the sequence (P49770 whole entry) above
T6 sequence (Q9NR50 whole entry partner): as the sequence (Q9NR50 whole entry partner) above
T6 sequence (Q9UI10 whole entry): as the sequence (Q9UI10 whole entry) above
T6 sequence (Q13144 whole entry partner): as the sequence (Q13144 whole entry R113H) above, with H113R counted along it
Experimental: as §1, §2, §3, §4, §5

[8] = target: T7, eIF2B mutant B5 R195H (HEK293T ATF4-Fluc cells) (Homo sapiens, UniProt P49770+Q13144+Q9UI10, R195H); experiment: ATF4-Luc assay, VWMD eIF2B mutant B5 R195H; type: cell-based; conditions: 1 μg/mL tunicamycin, 7 hours
T7 construct: endogenous in cells
T7 sequence (Q13144 whole entry R195H): as the sequence (Q13144 whole entry R113H) above, with H113R, R195H counted along it
T7 sequence (Q14232 whole entry partner): as the sequence (Q14232 whole entry partner) above
T7 sequence (P49770 whole entry): as the sequence (P49770 whole entry) above
T7 sequence (Q9NR50 whole entry partner): as the sequence (Q9NR50 whole entry partner) above
T7 sequence (Q9UI10 whole entry): as the sequence (Q9UI10 whole entry) above
Experimental: as §1, §2, §3, §4, §5

T1 sequence (Q9NR50 whole entry H341Q): as the sequence (Q9NR50 whole entry partner) above, with H341Q counted along it
T1 sequence (Q14232 whole entry partner): as the sequence (Q14232 whole entry partner) above
T1 sequence (P49770 whole entry): as the sequence (P49770 whole entry) above
T1 sequence (Q9UI10 whole entry): as the sequence (Q9UI10 whole entry) above
T1 sequence (Q13144 whole entry partner): as the sequence (Q13144 whole entry R113H) above, with H113R counted along it

O=C(COc1ccc(Cl)c(F)c1)NC12CCC(NC(=O)COc3ccc(Cl)c(F)c3)(CC1)[C@@H](O)C2 (single isomer, unassigned) [Compound 297]
EC50 [1]: < 0.01 µM | EC50 [2]: < 0.01 µM | EC50 [3]: < 0.01 µM | EC50 [4]: < 0.01 µM | EC50 [5]: < 0.01 µM | EC50 [6]: < 0.01 µM | EC50 [7]: < 0.01 µM | EC50 [8]: < 0.01 µM

O=C(COc1ccc(Cl)cc1)NC12CC(NC(=O)COc3ccc(Cl)cc3)(C1)C2 [Compound 112, N,N′-(bicyclo[1.1.1]pentane-1,3-diyl)bis[2-(4-chlorophenoxy)acetamide]]
EC50 [1]: < 0.01 µM | EC50 [2]: < 0.01 µM | EC50 [3]: < 0.01 µM | EC50 [4]: < 0.01 µM | EC50 [5]: < 0.01 µM | EC50 [6]: < 0.01 µM | EC50 [7]: < 0.01 µM | EC50 [8]: < 0.01 µM

O=C(COc1ccc(C(F)(F)F)nc1)NC12CC(NC(=O)COc3ccc(Cl)c(F)c3)(C1)C2 [Compound 175, 2-(4-chloro-3-fluorophenoxy)-N-[3-(2-{[6-(trifluoromethyl)pyridin-3-yl]oxy}acetamido)bicyclo[1.1.1]pentan-1-yl]acetamide]
EC50 [1]: 0.01 to 0.05 µM | EC50 [2]: < 0.01 µM | EC50 [3]: 0.01 to 0.05 µM | EC50 [4]: 0.01 to 0.05 µM | EC50 [5]: < 0.01 µM | EC50 [6]: < 0.01 µM | EC50 [7]: 0.05 to 0.25 µM | EC50 [8]: 0.01 to 0.05 µM

Cc1noc(COCC(=O)NC23CC(NC(=O)COc4ccc(Cl)c(F)c4)(C2)C3)n1 [Compound 217, 2-(4-chloro-3-fluorophenoxy)-N-(3-{2-[(3-methyl-1,2,4-oxadiazol-5-yl)methoxy]acetamido}bicyclo[1.1.1]pentan-1-yl)acetamide]
EC50 [1]: 0.5 to 2 µM | EC50 [2]: 0.5 to 2 µM | EC50 [3]: > 2 µM | EC50 [4]: 0.5 to 2 µM | EC50 [5]: 0.5 to 2 µM | EC50 [6]: > 2 µM | EC50 [7]: > 2 µM | EC50 [8]: 0.5 to 2 µM

O=C(COc1ccc(F)cc1)NC12CCC(NC(=O)COc3ccc(C(F)(F)F)c(F)c3)(CC1)[C@@H](O)C2 [Compound 835, 2-(4-fluorophenoxy)-N-[(3S)-4-{2-[3-fluoro-4-(trifluoromethyl)phenoxy]acetamido}-3-hydroxybicyclo[2.2.2]octan-1-yl]acetamide]
EC50 [2]: < 0.01 µM

O=C(COc1ccc(Cl)cc1)NC12CC(NC(=O)COc3cccc(C(F)(F)F)n3)(C1)C2 [Compound 836, 2-(4-chlorophenoxy)-N-[3-(2-{[6-(trifluoromethyl)pyridin-2-yl]oxy}acetamido)bicyclo[1.1.1]pentan-1-yl]acetamide]
EC50 [2]: 0.25 to 0.5 µM

O=C(COc1ccc(Cl)cc1)NC12CC(NC(=O)COc3ccc(F)c(F)c3)(C1)C2 [Compound 837, 2-(4-chlorophenoxy)-N-{3-[2-(3,4-difluorophenoxy)acetamido]bicyclo[1.1.1]pentan-1-yl}acetamide]
EC50 [2]: < 0.01 µM

O=C(COc1ccc(S(F)(F)(F)(F)F)nc1)NC12CCC(NC(=O)COc3ccc(Cl)c(F)c3)(CC1)[C@@H](O)C2 [Compound 838, 2-(4-chloro-3-fluorophenoxy)-N-[(2S)-2-hydroxy-4-(2-{[6-(pentafluoro-lambda^6-sulfanyl)pyridin-3-yl]oxy}acetamido)bicyclo[2.2.2]octan-1-yl]acetamide]
EC50 [2]: < 0.01 µM

O=C(COc1ccc(S(F)(F)(F)(F)F)cc1)NC12CCC(NC(=O)COc3ccc(Cl)c(F)c3)(CC1)[C@@H](O)C2 [Compound 839, 2-(4-chloro-3-fluorophenoxy)-N-[(2S)-2-hydroxy-4-{2-[4-(pentafluoro-lambda^6-sulfanyl)phenoxy]acetamido}bicyclo[2.2.2]octan-1-yl]acetamide]
EC50 [2]: < 0.01 µM

O=C(COc1ccccc1)NC12CCC(NC(=O)COc3ccc(Cl)c(F)c3)(CC1)[C@@H](O)C2 [Compound 840, 2-(4-chloro-3-fluorophenoxy)-N-[(2S)-2-hydroxy-4-(2-phenoxyacetamido)bicyclo[2.2.2]octan-1-yl]acetamide]
EC50 [2]: < 0.01 µM

Cc1cc(OCC(=O)NC23CCC(NC(=O)COc4ccc(C(F)(F)F)c(F)c4)(CC2)C[C@@H]3O)ccc1Cl [Compound 841, 2-(4-chloro-3-methylphenoxy)-N-[(2S)-4-{2-[3-fluoro-4-(trifluoromethyl)phenoxy]acetamido}-2-hydroxybicyclo[2.2.2]octan-1-yl]acetamide]
EC50 [2]: < 0.01 µM

O=C(COc1ccc(C(F)(F)F)c(F)c1)NC12CCC(NC(=O)COc3ccc(F)c(F)c3)(CC1)[C@@H](O)C2 [Compound 842, 2-(3,4-difluorophenoxy)-N-[(2S)-4-{2-[3-fluoro-4-(trifluoromethyl)phenoxy]acetamido}-2-hydroxybicyclo[2.2.2]octan-1-yl]acetamide]
EC50 [2]: < 0.01 µM

O=C(COc1ccc(C(F)(F)F)c(F)c1)NC12CCC(NC(=O)COc3ccc(Cl)cc3)(CC1)[C@@H](O)C2 [Compound 843, 2-(4-chlorophenoxy)-N-[(2S)-4-{2-[3-fluoro-4-(trifluoromethyl)phenoxy]acetamido}-2-hydroxybicyclo[2.2.2]octan-1-yl]acetamide]
EC50 [2]: < 0.01 µM

O=C(COc1ccc(C(F)(F)F)c(F)c1)NC12CCC(NC(=O)COc3ccc(F)cc3)(CC1)[C@@H](O)C2 [Compound 844, 2-(4-fluorophenoxy)-N-[(2S)-4-{2-[3-fluoro-4-(trifluoromethyl)phenoxy]acetamido}-2-hydroxybicyclo[2.2.2]octan-1-yl]acetamide]
EC50 [2]: < 0.01 µM

O=C(COc1ccc(F)c(C(F)(F)F)c1)NC12CCC(NC(=O)COc3ccc(F)c(F)c3)(CC1)[C@@H](O)C2 [Compound 845, 2-(3,4-difluorophenoxy)-N-[(2S)-4-{2-[4-fluoro-3-(trifluoromethyl)phenoxy]acetamido}-2-hydroxybicyclo[2.2.2]octan-1-yl]acetamide]
EC50 [2]: < 0.01 µM

O=C(COc1ccc(F)c(C(F)(F)F)c1)NC12CCC(NC(=O)COc3ccc(Cl)cc3)(CC1)[C@@H](O)C2 [Compound 846, 2-(4-chlorophenoxy)-N-[(2S)-4-{2-[4-fluoro-3-(trifluoromethyl)phenoxy]acetamido}-2-hydroxybicyclo[2.2.2]octan-1-yl]acetamide]
EC50 [2]: < 0.01 µM

O=C(COc1ccc(F)c(C(F)(F)F)c1)NC12CCC(NC(=O)COc3ccc(F)cc3)(CC1)[C@@H](O)C2 [Compound 847, 2-(4-fluorophenoxy)-N-[(2S)-4-{2-[4-fluoro-3-(trifluoromethyl)phenoxy]acetamido}-2-hydroxybicyclo[2.2.2]octan-1-yl]acetamide]
EC50 [2]: < 0.01 µM

O=C(COc1ccc(F)c(C(F)(F)F)c1)NC12CCC(NC(=O)COc3ccc(Cl)c(F)c3)(CC1)[C@@H](O)C2 [Compound 848, 2-(4-chloro-3-fluorophenoxy)-N-[(2S)-4-{2-[4-fluoro-3-(trifluoromethyl)phenoxy]acetamido}-2-hydroxybicyclo[2.2.2]octan-1-yl]acetamide]
EC50 [2]: < 0.01 µM

O=C(COc1ccc(C(F)(F)F)c(F)c1)NC12CCC(NC(=O)COc3ccc(Cl)c(F)c3)(CC1)[C@@H](O)C2 [Compound 849, 2-(4-chloro-3-fluorophenoxy)-N-[(2S)-4-{2-[3-fluoro-4-(trifluoromethyl)phenoxy]acetamido}-2-hydroxybicyclo[2.2.2]octan-1-yl]acetamide]
EC50 [2]: < 0.01 µM
